Measurements as given in the NIST ThermoML archive (doi:10.1021/je050151n).
Where “and” joins values, the source holds several entries; their conditions need not be identical. Identical values can stand only once. ± gives the expanded uncertainty stated by the source.

Legend:
[1] = 101.33 kPa, Liquid; for mass density: Vibrating tube method; for viscosity: Vibrating wire viscometry
[2] = refractive index (Na D-line) (dimensionless); conditions: 293.15 K; 101.33 kPa; Liquid; Standard Abbe refractometry

CC(C)CCCCCCCOC(=O)c1ccccc1C(=O)OCCCCCCCC(C)C
mass density ([1]; 283.16 K): 973.52 ± 1 kg/m3 | viscosity ([1]; 283.16 K): 267.36 ± 8.4 mPa·s | mass density ([1]; 288.26 K): 969.85 ± 1 kg/m3 | viscosity ([1]; 288.26 K): 176.04 ± 4.7 mPa·s | mass density ([1]; 293.21 K): 966.38 ± 1 kg/m3 | viscosity ([1]; 293.21 K): 123.07 ± 2.7 mPa·s and 122.75 ± 2.7 mPa·s | mass density ([1]; 298.24 K): 962.82 ± 0.99 kg/m3 | viscosity ([1]; 298.24 K): 87.8 ± 1.6 mPa·s | mass density ([1]; 303.21 K): 959.3 ± 0.99 kg/m3 | viscosity ([1]; 303.21 K): 64.84 ± 0.99 mPa·s | mass density ([1]; 308.2 K): 955.78 ± 0.99 kg/m3 | viscosity ([1]; 308.2 K): 48.73 ± 0.7 mPa·s | mass density ([1]; 313.21 K): 952.22 ± 0.98 kg/m3 | viscosity ([1]; 313.21 K): 37.57 ± 0.56 mPa·s | refractive index [2]: 1.4845 ± 0.0007
